Measured values from patent US8741589B2, “Monitoring two dimensions of diabetes pathogenesis” (The Regents of the University of California, priority 2005, dated 2014).

Legend:
pre-diabetes = settings: metformin therapy, background statement; cited from earlier work
[1] = system: models of insulin resistance; experiment: Deuterated water production from deuterated glucose in models of insulin resistance, response to insulin-sensitizing therapies; type: in vivo; settings: response to administration of insulin-sensitizing therapies in models of insulin resistance
Excerpt: Accordingly, the maintenance of normal absolute heavy water production in the face of insulin resistance was highly informative—“normal” heavy water production in this setting represented sufficiency (adequacy) of the pancreatic beta-cell response to the insulin resistance present. […] Full characterization of DM2 susceptibility and progression is thereby enabled through a simple, easily performed and widely usable test.

SMILES: CN(C)C(=N)N=C(N)N [metformin]
- pancreatic insulin secretion (pre-diabetes): improve pancreatic insulin secretion
- progression to DM2 (pre-diabetes): prevent progression to DM2
- deuterated water production [1]: increased
